Columns and labels:
Assay in all cases: preservation efficacy test (PET), European Pharmacopoeia 5.1.3
Type in all cases: cell-based
Pseudomonas aeruginosa = conditions: for count at 2 days / count at 7 days / count at 14 days / count at 28 days: PA, use concentration in label; for count at 2 days / PA germ count, 2 days: 2 days after inoculation; for count at 7 days / PA germ count, 7 days: 7 days after inoculation; for count at 14 days / PA germ count, 14 days: 14 days after inoculation; for count at 28 days / PA germ count, 28 days: 28 days after inoculation; for PA germ count, 2 days / PA germ count, 7 days / PA germ count, 14 days / PA germ count, 28 days: substance at given % in test formulation
Staphylococcus aureus = conditions: for count at 7 days / SA germ count, 7 days: 7 days after inoculation; for SA germ count, 14 days / count at 14 days: 14 days after inoculation; for SA germ count, 28 days / count at 28 days: 28 days after inoculation
Escherichia coli = conditions: for count at 2 days / count at 7 days / count at 14 days / count at 28 days: EC, use concentration in label; for count at 2 days / EC germ count, 2 days: 2 days after inoculation; for count at 7 days / EC germ count, 7 days: 7 days after inoculation; for count at 14 days / EC germ count, 14 days: 14 days after inoculation; for EC germ count, 7 days / EC germ count, 14 days / EC germ count, 28 days / EC germ count, 2 days: substance at given % in test formulation; for EC germ count, 28 days / count at 28 days: 28 days after inoculation
Candida albicans = conditions: for count at 14 days / CA germ count, 14 days: 14 days after inoculation; for count at 28 days / CA germ count, 28 days: 28 days after inoculation; for CA germ count, 7 days / CA germ count, 14 days / CA germ count, 28 days / CA germ count, 2 days: substance at given % in test formulation
Aspergillus brasiliensis = conditions: for count at 7 days / count at 14 days / count at 28 days / count at 2 days: AB, use concentration in label; for count at 7 days / AB germ count, 7 days: 7 days after inoculation; for count at 14 days / AB germ count, 14 days: 14 days after inoculation; for count at 28 days / AB germ count, 28 days: 28 days after inoculation
[1] = 2 days after inoculation, substance at given % in test formulation
[2] = substance at given % in test formulation

Row | SMILES | count at 2 days (Pseudomonas aeruginosa) | count at 7 days (Pseudomonas aeruginosa) | count at 14 days (Pseudomonas aeruginosa) | count at 28 days (Pseudomonas aeruginosa) | count at 7 days (Staphylococcus aureus; SA, use concentration in label) | count at 2 days (Escherichia coli) | count at 7 days (Escherichia coli) | count at 14 days (Escherichia coli) | count at 28 days (Candida albicans; CA, use concentration in label) | count at 7 days (Aspergillus brasiliensis) | count at 14 days (Aspergillus brasiliensis) | count at 28 days (Aspergillus brasiliensis) | PA germ count, 2 days (Pseudomonas aeruginosa) | PA germ count, 7 days (Pseudomonas aeruginosa) | PA germ count, 14 days (Pseudomonas aeruginosa) | PA germ count, 28 days (Pseudomonas aeruginosa) | SA germ count, 7 days (Staphylococcus aureus; [2]) | SA germ count, 14 days (Staphylococcus aureus; [2]) | SA germ count, 28 days (Staphylococcus aureus; [2]) | EC germ count, 7 days (Escherichia coli) | further results
1 | O=C([O-])CC[C@@H](C(=O)[O-])N(CC(=O)[O-])CC(=O)[O-].[Na+].[Na+].[Na+].[Na+] | 43.000 | 95.000 | 510.000 | 350.000 | 810.000 | 50.000 | 23.000 | 450.000 | 390.000 | 440.000 | 720.000 | 660.000 | – | – | – | – | – | – | – | – | count at 14 days (Candida albicans; CA, use concentration in label): 200.000
2 | CC(=O)c1ccc(O)cc1 [0.1% 4-Hydroxyacetophenone (SymSave H)] | – | – | – | – | – | – | – | – | – | – | – | – | 1 | 1 | 1 | 1 | 1 | 1 | 1 | 87.000 | SA germ count, 2 days (Staphylococcus aureus; [1]): 210.000; EC germ count, 14 days (Escherichia coli): 2.400; EC germ count, 28 days (Escherichia coli): 1; CA germ count, 7 days (Candida albicans; 7 days after inoculation): 81.000; CA germ count, 14 days (Candida albicans): 120; CA germ count, 28 days (Candida albicans): 1; AB germ count, 7 days (Aspergillus brasiliensis; [2]): 680.000; AB germ count, 14 days (Aspergillus brasiliensis; [2]): 58.000; AB germ count, 28 days (Aspergillus brasiliensis; [2]): 18.000
3 | CCOC(=O)c1ccc(O)cc1 [0.1% Ethylparaben] | – | – | – | – | – | – | – | – | – | – | – | – | 1 | 1 | 1 | 1 | 38.000 | 1 | 1 | 62.000 | EC germ count, 2 days (Escherichia coli): 440.000; EC germ count, 14 days (Escherichia coli): 280; EC germ count, 28 days (Escherichia coli): 390; CA germ count, 2 days (Candida albicans; 2 days after inoculation): 380.000; CA germ count, 7 days (Candida albicans; 7 days after inoculation): 200.000; CA germ count, 14 days (Candida albicans): 170.000; CA germ count, 28 days (Candida albicans): 260.000; AB germ count, 7 days (Aspergillus brasiliensis; [2]): 630.000; AB germ count, 14 days (Aspergillus brasiliensis; [2]): 800.000; AB germ count, 28 days (Aspergillus brasiliensis; [2]): 730.000
4 | COC(=O)c1ccc(O)cc1 [0.1% Methylparaben] | – | – | – | – | – | – | – | – | – | – | – | – | 1 | 1 | 1 | 1 | 6.100 | 140 | 1 | 18.000 | EC germ count, 2 days (Escherichia coli): 680.000; EC germ count, 14 days (Escherichia coli): 45; EC germ count, 28 days (Escherichia coli): 1; CA germ count, 2 days (Candida albicans; 2 days after inoculation): 100.000; CA germ count, 7 days (Candida albicans; 7 days after inoculation): 210.000; CA germ count, 14 days (Candida albicans): 85.000; CA germ count, 28 days (Candida albicans): 11.000; AB germ count, 2 days (Aspergillus brasiliensis; [1]): 300.000; AB germ count, 7 days (Aspergillus brasiliensis; [2]): 690.000; AB germ count, 14 days (Aspergillus brasiliensis; [2]): 300.000; AB germ count, 28 days (Aspergillus brasiliensis; [2]): 240.000
5 | Cc1ccc(C(C)C)c(O)c1 [0.1% Thymol] | 1 | 1 | 1 | 1 | 23.000 | 720.000 | 200.000 | 200 | 1.400 | 520.000 | 290.000 | 650.000 | – | – | – | – | – | – | – | – | count at 14 days (Staphylococcus aureus; SA, use concentration in label): 120; count at 28 days (Staphylococcus aureus; SA, use concentration in label): 1; count at 28 days (Escherichia coli): 27; count at 2 days (Candida albicans; CA, 2 days after inoculation, use concentration in label): 69.000; count at 7 days (Candida albicans; CA, 7 days after inoculation, use concentration in label): 640.000; count at 14 days (Candida albicans; CA, use concentration in label): 180; count at 2 days (Aspergillus brasiliensis; 2 days after inoculation): 580.000
6 | CCCCCC(O)CO (stereo not shown) [0.2 % 1,2-heptanediol] | 1 | 1 | 1 | 1 | 2.300 | 53.000 | 1.100 | 1 | 420.000 | 630.000 | 230.000 | 220.000 | – | – | – | – | – | – | – | – | count at 2 days (Staphylococcus aureus; SA, 2 days after inoculation, use concentration in label): 84.000; count at 14 days (Staphylococcus aureus; SA, use concentration in label): 1; count at 28 days (Staphylococcus aureus; SA, use concentration in label): 1; count at 28 days (Escherichia coli): 1; count at 2 days (Aspergillus brasiliensis; 2 days after inoculation): 790.000
